Target: Glutamate receptor ionotropic NMDA 2B (Rattus norvegicus) (UniProt Q00960)
Experiment: In vitro inhibition of NMDA responses at NR1A/2B receptor expressed in Xenopus oocytes

Sequence of Glutamate receptor ionotropic NMDA 2B (Rattus norvegicus) (Q00960 whole entry, looked up): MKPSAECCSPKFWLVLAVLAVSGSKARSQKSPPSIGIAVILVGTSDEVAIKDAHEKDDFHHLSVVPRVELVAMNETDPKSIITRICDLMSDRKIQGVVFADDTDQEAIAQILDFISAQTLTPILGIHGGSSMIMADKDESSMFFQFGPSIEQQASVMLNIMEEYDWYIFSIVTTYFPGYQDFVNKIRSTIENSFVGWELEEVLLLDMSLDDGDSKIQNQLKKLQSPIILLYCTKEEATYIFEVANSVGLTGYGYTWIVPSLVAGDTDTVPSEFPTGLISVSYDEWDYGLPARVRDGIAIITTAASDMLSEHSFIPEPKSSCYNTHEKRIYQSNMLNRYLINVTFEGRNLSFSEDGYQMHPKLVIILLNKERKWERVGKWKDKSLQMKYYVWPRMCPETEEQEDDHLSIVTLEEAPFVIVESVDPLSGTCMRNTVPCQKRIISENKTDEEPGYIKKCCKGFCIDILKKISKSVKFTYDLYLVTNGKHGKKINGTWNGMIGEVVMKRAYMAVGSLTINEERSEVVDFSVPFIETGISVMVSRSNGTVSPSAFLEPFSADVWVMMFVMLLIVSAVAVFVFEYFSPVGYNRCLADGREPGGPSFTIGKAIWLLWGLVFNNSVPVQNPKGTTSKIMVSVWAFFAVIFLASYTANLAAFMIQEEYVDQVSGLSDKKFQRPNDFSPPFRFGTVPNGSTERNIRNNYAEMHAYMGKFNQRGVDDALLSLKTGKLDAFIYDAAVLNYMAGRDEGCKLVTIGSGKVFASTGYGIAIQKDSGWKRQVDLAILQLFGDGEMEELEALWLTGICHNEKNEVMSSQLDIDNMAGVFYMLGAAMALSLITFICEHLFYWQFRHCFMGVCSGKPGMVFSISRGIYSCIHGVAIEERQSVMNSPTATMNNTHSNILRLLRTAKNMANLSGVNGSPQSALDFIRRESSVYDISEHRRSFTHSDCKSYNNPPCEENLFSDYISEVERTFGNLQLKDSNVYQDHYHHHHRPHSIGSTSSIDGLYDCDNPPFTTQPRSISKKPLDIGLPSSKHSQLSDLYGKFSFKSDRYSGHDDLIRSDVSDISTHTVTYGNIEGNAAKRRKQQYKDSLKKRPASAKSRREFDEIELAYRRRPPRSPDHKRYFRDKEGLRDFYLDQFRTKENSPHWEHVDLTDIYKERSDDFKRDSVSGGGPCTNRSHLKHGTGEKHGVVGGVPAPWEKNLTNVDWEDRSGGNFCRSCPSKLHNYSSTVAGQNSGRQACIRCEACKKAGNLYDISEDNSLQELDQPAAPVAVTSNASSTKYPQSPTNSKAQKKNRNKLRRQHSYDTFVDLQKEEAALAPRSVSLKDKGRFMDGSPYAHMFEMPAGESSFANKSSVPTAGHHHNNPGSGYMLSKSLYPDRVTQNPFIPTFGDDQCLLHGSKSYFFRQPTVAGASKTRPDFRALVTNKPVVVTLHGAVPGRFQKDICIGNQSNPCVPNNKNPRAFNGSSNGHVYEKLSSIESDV

Oc1ccc(OCCN2CCC(Cc3ccccc3)CC2)cc1 [4-[2-(4-Benzyl-piperidin-1-yl)-ethoxy]-phenol]
IC50: 25 nM

— BindingDB's records for doi:10.1021/jm990537r (Cocensys, 2000)
